Source: PMC10954600, “A novel laccase from Trametes polyzona with high performance in the decolorization of textile dyes” (AMB Express, 2024)

Tested on: TP-Lac2
Details: 25 mM tartrate buffer, pH 3.5, 50 °C; 0.05-1.5 mM ABTS

CCn1c(=NN=c2sc3cc(S(=O)(=O)O)ccc3n2CC)sc2cc(S(=O)(=O)O)ccc21 [ABTS]
Km: 250 ± 40 µM
